Test results reported in patent US20030027981A1, “Urokinase-type plasminogen activator receptor” (priority 1989, published 2003).

System: HT-1080 cells
Test: Formation of cell-bound plasmin on HT-1080 cells in serum culture (tranexamic acid eluate, thioesterase assay)
Type: cell-based, human
Conditions: for Bound plasmin activity: 2 h, serum medium, all with Plg 40 μg/ml, aprotinin, anti-Plg-1, TA (100 μM) also with anti-PAI-1 10 μg/ml; for activity at 10 µM / activity at 100 µM: Homo sapiens, HT-1080; for activity at 10 µM: Plg 40 μg/ml + TA 10 μM; for activity at 100 µM: Plg 40 μg/ml + TA 100 μM
Procedure: Human fibrosarcoma cells (HT-1080, CCL 121) were obtained from the American Type Culture Collection, Rockville, Md. Confluent cell layers were grown in plastic Linbro wells (2 cm^2; Flow Laboratories) in Eagle's minimal essential medium (MEM) supplemented with 10% heat-inactivated (56° C. for 60 minutes) fetal calf serum (Gibco), 100 IU/ml penicillin and 50 μg/ml streptomycin. After reaching confluence, the cells were rinsed three times with MEM containing 0.2% bovine serum albumin (BSA), then changed to either serum-free medium (0.5 ml) or medium containing 10% heat-inactivated and plasminogen-depleted (i.e. absorbed with lysine-Sepharose; Pharmacia, Uppsala, Sweden) fetal calf serum as indicated in the Examples.
Human plasminogen (with glutamic acid N-terminal) was prepared by affinity chromatography on lysine-Sepharose (Deutsch, D. G., and E. T. Mertz, “Plasminogen: Purification from human plasma by affinity chromatography”, Science 170: 1095-1097, 1970) from freshly separated, unfrozen human plasma pretreated with 10 μM p-nitrophenyl guanidinobenzoate, 1 mM phenylmethylsulfonylfluoride and 0.1 μg/ml of an anti-catalytic murine monoclonal IgG antibody to human t-PA (ESP-2; see MacGregor, I. R. et al., “Characterization of epitopes on human tissue plasminogen activator recognised by a group of monoclonal antibodies”, Thromb. Haem. 53: 45-50, 1985); American Diagnostica, Greenwich, Conn.).
Res. 46: 755-766, 1987) titration equivalent of 3.6 IU u-PA/ml; an anti-catalytic murine monoclonal IgG antibody to human u-PA (clone 2 (10 μg/ml) in Nielsen, L. S. et al., “Enzyme-linked immunosorbent assay for human urokinase-type plasminogen activators and its proenzyme using a combination of monoclonal and polyclonal antibodies”, J. Immunoassay 7: 209-228, 1986); the anti-catalytic monoclonal antibody to human t-PA (10 μg/ml); a neutralising murine monoclonal IgG antibody to human PAI-1 (Nielsen, L. S. et al., “Monoclonal antibodies to human 54,000 molecular weight plasminogen activator inhibitor from fibrosarcoma cells—inhibitor neutralization and one-step affinity purification”, Thromb. Haem. 55: 206-212, 1986) (10 μg/ml) and diisopropyl fluorophosphate (DFP)-inactivated u-PA (0-10 μg/ml).
The plasmin activity of culture supernatant samples (50 μl) was assayed directly by incubation with the thioester substrate solution above (200 μl) for 30 minutes (serum-free supernatants) or 3 hours (serum-containing supernatants) at 37° C. An estimate of the amount of active plasmin present was made from calibration curves using human plasmin dilutions in serum-free medium covering the appropriate ranges of activity.
Plasmin bound to the cell layer was recovered and assayed as follows. After harvest of culture medium, the cells were rinsed three times with PBS (plasmin assays of further rinses were negative); then the bound plasmin was specifically eluted (Miles, L. A., and E. F. Plow, “Binding and activation of plasminogen on the platelet surface”, J. Biol. Chem. 260: 4303-4311, 1985) with a solution of 1 mM tranexamic acid in the same rinsing solution (150 μl/well). Plasmin activity was assayed in eluate samples (50 μl) as above with an incubation time of 3 hours at 37° C. Tranexamic acid at 1 mM had no effect on the thioesterase activity of plasmin in these assays.
The following additions were made to cell layers growing in MEM medium (0.5 ml) containing 10% heat-inactivated and plasminogen-depleted fetal calf serum: native human plasminogen (Plg, 40 μg/ml); anti-catalytic monoclonal antibody to human u-PA (10 μg/ml); anti-catalytic monoclonal antibody to human t-PA (10 μg/ml); PAI-2 (titration equivalent of 3.6 UI u-PA/ml); anti-catalytic monoclonal antibody to human plasmin (20 μg/ml); aprotinin (200 KIU/ml); tranexamic acid (TA, as shown). The cultures were incubated for the times shown before assay of cell-bound plasmin. The incubation with plasminogen was used as the 100% control for bound plasmin. […]

[1] = 3 h, serum medium with Plg 40 μg/ml (=100%), anti-u-PA 10 μg/ml, anti-t-PA 10 μg/ml, PAI-2 equiv. 3.6 IU u-PA/ml, aprotinin 200 KIU/ml, anti-Plg-1 20 μg/ml
[2] = 17 h, serum medium with Plg 40 μg/ml (=100%), additions as b555

Molecule: NC[C@H]1CC[C@H](C(=O)O)CC1 [TA, tranexamic acid]
- Bound plasmin activity: 0 ng
- activity at 10 µM (3 h): 9.7%
- activity at 100 µM (3 h): 2.2%
- activity at 10 µM (17 h): 34%
- activity at 100 µM (17 h): 13%

Molecule: Plg: native human plasminogen (glutamic acid N-terminal) purified from human plasma on lysine-Sepharose
- Plasmin recovered from the cell layer (40 μg/ml human plasminogen in 0.5 ml serum medium, 2 cm^2 cell layer, 3 hours 37° C.): 28 ng
- Plasmin measurable in the medium (40 μg/ml human plasminogen in 0.5 ml serum medium, 3 hours 37° C.): 10 ng
- Bound plasmin activity: 12 ng
- Bound plasmin activity (%) [1]: 100%
- Bound plasmin activity (%) [2]: 100%

Molecule: aprotinin
- Bound plasmin activity: 3.3 ng
- Bound plasmin activity (%) [1]: 13.2%
- Bound plasmin activity (%) [2]: 7.8%

B1: PAI-2: human type-2 plasminogen activator inhibitor purified from U937 cells (protein, UniProt P05120 1-415, looked up)
Plasminogen activator …: MEDLCVANTLFALNLFKHLAKASPTQNLFLSPWSISSTMAMVYMGSRGSTEDQMAKVLQFNEVGANAVTPMTPENFTSCGFMQQIQKGSYPDAILQAQAADKIHSSFRSLSSAINASTGNYLLESVNKLFGEKSASFREEYIRLCQKYYSSEPQAVDFLECAEEARKKINSWVKTQTKGKIPNLLPEGSVDGDTRMVLVNAVYFKGKWKTPFEKKLNGLYPFRVNSAQRTPVQMMYLREKLNIGYIEDLKAQILELPYAGDVSMFLLLPDEIADVSTGLELLESEITYDKLNKWTSKDKMAEDEVEVYIPQFKLEEHYELRSILRSMGMEDAFNKGRANFSGMSERNDLFLSEVFHQAMVDVNEEGTEAAAGTGGVMTGRTGHGGPQFVADHPFLFLIMHKITNCILFFGRFSSP
- Bound plasmin activity (%) [1]: 48%
- Bound plasmin activity (%) [2]: 19%
- Bound plasmin activity (%) (cells preincubated 1 h with inhibitor (anti-u-PA 10 μg/ml, PAI-2 equiv. 3.6 IU u-PA/ml), rinsed, then 3 h with Plg 40 μg/ml in serum medium): 54%
